Patent US20230141603A1, “BENZODIAZEPINE DERIVATIVES AS GABA A GAMMA1 PAM” (Hoffmann-La Roche Inc., priority 2021, published 2023)

Target: T1, h-GABAA α5β2γ1 (Homo sapiens, UniProt P31644+Q8N1C3)
T1 construct: expressed in transfected cells; host or cells: HEK293F cells (ThermoFisher R79007), membranes
T1 sequence (P31644 32-462): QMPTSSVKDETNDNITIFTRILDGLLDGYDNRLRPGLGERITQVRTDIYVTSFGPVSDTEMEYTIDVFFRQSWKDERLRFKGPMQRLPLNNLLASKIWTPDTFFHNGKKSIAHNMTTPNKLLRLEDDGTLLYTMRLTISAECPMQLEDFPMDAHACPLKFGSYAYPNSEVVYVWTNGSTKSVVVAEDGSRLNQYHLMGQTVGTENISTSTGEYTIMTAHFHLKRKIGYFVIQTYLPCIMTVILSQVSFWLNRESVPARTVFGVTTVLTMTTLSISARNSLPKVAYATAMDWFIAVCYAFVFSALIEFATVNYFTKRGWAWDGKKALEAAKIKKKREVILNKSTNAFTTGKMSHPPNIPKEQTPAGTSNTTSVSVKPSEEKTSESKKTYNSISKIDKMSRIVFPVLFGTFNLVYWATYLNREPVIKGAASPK
T1 sequence (P47870 25-512 partner limits assumed): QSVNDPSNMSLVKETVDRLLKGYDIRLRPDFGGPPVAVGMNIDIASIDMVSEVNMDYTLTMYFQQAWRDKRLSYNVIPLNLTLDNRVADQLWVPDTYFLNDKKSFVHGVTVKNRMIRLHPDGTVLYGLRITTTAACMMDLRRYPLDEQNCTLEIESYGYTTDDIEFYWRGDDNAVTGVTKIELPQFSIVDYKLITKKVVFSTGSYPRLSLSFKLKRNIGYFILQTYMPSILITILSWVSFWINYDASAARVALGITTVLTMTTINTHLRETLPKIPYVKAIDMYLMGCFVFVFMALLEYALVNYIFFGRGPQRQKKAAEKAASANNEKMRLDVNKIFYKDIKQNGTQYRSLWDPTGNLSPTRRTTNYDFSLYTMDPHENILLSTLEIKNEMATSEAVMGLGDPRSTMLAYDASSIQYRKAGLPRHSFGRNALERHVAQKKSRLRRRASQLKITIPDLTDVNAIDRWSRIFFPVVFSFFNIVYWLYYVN
T1 sequence (Q8N1C3 36-465): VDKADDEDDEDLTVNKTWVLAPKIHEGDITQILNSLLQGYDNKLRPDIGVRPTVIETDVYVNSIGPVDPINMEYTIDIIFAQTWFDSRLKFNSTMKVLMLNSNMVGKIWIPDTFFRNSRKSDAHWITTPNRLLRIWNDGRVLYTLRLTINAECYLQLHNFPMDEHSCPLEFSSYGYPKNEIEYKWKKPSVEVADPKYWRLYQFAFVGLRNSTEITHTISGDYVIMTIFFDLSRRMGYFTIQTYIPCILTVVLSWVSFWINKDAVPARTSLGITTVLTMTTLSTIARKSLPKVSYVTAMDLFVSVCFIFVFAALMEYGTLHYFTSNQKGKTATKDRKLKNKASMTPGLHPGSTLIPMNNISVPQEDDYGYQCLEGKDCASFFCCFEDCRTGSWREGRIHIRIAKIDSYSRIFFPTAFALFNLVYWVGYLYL
Test: Radioligand binding assay, [3H]RO7239181 competition, HEK293F membranes
In short: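 Competition for [3H]RO7239181 (1.5 nM) binding to membranes from HEK293F cells transiently expressing human α5β2γ1 receptors. Compounds tested at 0.3–10000 nM; nonspecific binding defined with 10 μM RO7235136. Incubation 1 h at 4 °C in 10 mM KPi/100 mM KCl, pH 7.4; filtration, scintillation counting; Ki as mean of two determinations.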

Row | SMILES | Ki
1 | CO[C@H]1C[C@H](c2nnc3n2-c2ccc(Cl)c(Cl)c2C(c2c(F)cccc2F)=NC3)C1 [Example 91, trans-7,8-dichloro-6-(2,6-difluorophenyl)-1-(3-methoxycyclobutyl)-4H-[1,2,4]triazolo[4,3-a][1,4]benzodiazepine] | 3.1 nM
2 | Fc1cccc(F)c1C1=NCc2nnc(-c3cccnn3)n2-c2ccc(Br)c(Cl)c21 [Example 104, 8-bromo-7-chloro-6-(2,6-difluorophenyl)-1-pyridazin-3-yl-4H-[1,2,4]triazolo[4,3-a][1,4]benzodiazepine] | 0.6 nM
